Patent US20240132484A1, “BROAD SPECTRUM ANTIVIRAL COMPOUNDS TARGETING THE SKI COMPLEX” (priority 2020, published 2024)
Several values for one entry are separate records, joined by “and”; a condition that tells them apart may be missing. Identical values can stand only once. Like-named read-outs stand apart in the source and are kept apart here.

Assays:
SARS2 = format: cell-based, SARS-CoV-2; details: for Percentage Infection Relative to Appropriate DMSO Control: avg background subtraction
cells (nuclei count) = details: for Toxicity Data: Average, Mean: average of Exp 1-3 (SMW475, SMW477, SMW478), n 9; for Toxicity Data, Percentage Relative to Appropriate DMSO Control, Mean: Average of Exp 1 and Exp 2, n=4; for Toxicity Data, Percentage Relative to Appropriate DMSO Control: single wells

COc1ccc(CNCCc2ccccc2F)c(OCC(O)CN2CCN(C)CC2)c1 (racemic) [UMB18G]
Percentage Infection Relative to Appropriate DMSO Control (SARS2; Exp 2 (SMW492), 50 uM, single wells): 1.27% and 0.52% and 1.57% and 1.49% | Percentage Infection Relative to Appropriate DMSO Control (SARS2; Exp 3 (SMW480), 1 uM): 54.21% and 61.59% and 57.93% | Percentage Infection Relative to Appropriate DMSO Control (SARS2; Exp 3 (SMW480), 5 uM): 19.54% and 24.35% and 30.13% | Percentage Infection Relative to Appropriate DMSO Control (SARS2; Exp 3 (SMW480), 10 uM): 53.71% and 59.47% and 34.88% | Percentage Infection Relative to Appropriate DMSO Control (SARS2; Exp 3 (SMW480), 25 uM): −0.67% and 2.60% and 2.37% | Percentage Infection Relative to Appropriate DMSO Control (SARS2; Exp 3 (SMW480), 50 uM): −1.69% and −2.08% and −2.66% | Percentage Inhibition Average 1 μM (SARS2; SARS2, 1 μM): 40.42% | Screening data (Relative infection to DMSO controls) Average 1 μM (SARS2; SARS2, 1 μM, 100=DMSO control): 59.58 | Percentage Inhibition Average 5 μM (SARS2; SARS2, 5 μM): 68.79% | Screening data (Relative infection to DMSO controls) Average 5 μM (SARS2; SARS2, 5 μM, 100=DMSO control): 31.21 | Percentage Inhibition Average 10 μM (SARS2; SARS2, 10 μM): 90.05% | Screening data (Relative infection to DMSO controls) Average 10 μM (SARS2; SARS2, 10 μM, 100=DMSO control): 9.95 | Percentage Inhibition Average 25 μM (SARS2; SARS2, 25 μM): 93.14% | Screening data (Relative infection to DMSO controls) Average 25 μM (SARS2; SARS2, 25 μM, 100=DMSO control): 6.86 | Percentage Inhibition Average 50 μM (SARS2; SARS2, 50 μM): 94.65% | Screening data (Relative infection to DMSO controls) Average 50 μM (SARS2; SARS2, 50 μM, 100=DMSO control): 5.35 | Average (relative infection to DMSO over the 5 tested concentrations) (SARS2; SARS2, average over 1 to 50 uM, 100=DMSO control): 22.59 | Toxicity Data: Average, Mean (cells (nuclei count); 1 uM): 125.37% | Relative cell count to DMSO controls, Average 1 μM (cells (nuclei count); 1 μM, toxicity data, 100=DMSO control): 123.37 | Toxicity Data: Average, Mean (cells (nuclei count); 5 uM): 151.57% | Relative cell count to DMSO controls, Average 5 μM (cells (nuclei count); 5 μM, toxicity data, 100=DMSO control): 134.20 | Toxicity Data: Average, Mean (cells (nuclei count); 10 uM): 148.72% | Relative cell count to DMSO controls, Average 10 μM (cells (nuclei count); 10 μM, toxicity data, 100=DMSO control): 139.68 | Toxicity Data: Average, Mean (cells (nuclei count); 25 uM): 110.49% | Relative cell count to DMSO controls, Average 25 μM (cells (nuclei count); 25 μM, toxicity data, 100=DMSO control): 116.94 | Toxicity Data: Average, Mean (cells (nuclei count); 50 uM): 58.67% | Relative cell count to DMSO controls, Average 50 μM (cells (nuclei count); 50 μM, toxicity data, 100=DMSO control): 85.72 | Toxicity Data, Average, Mean (cells (nuclei count); Average of Exp 1-3, n 9, 1 uM): 108.03% | Toxicity Data, Average, Mean (cells (nuclei count); Average of Exp 1-3, n 9, 5 uM): 120.64% | Toxicity Data, Average, Mean (cells (nuclei count); Average of Exp 1-3, n 9, 10 uM): 114.41% | Toxicity Data, Average, Mean (cells (nuclei count); Average of Exp 1-3, n 9, 25 uM): 112.46% | Toxicity Data, Average, Mean (cells (nuclei count); Average of Exp 1-3, n 9, 50 uM): 78.15% | Toxicity Data, Percentage Relative to Appropriate DMSO Control, Mean (cells (nuclei count); 1 uM): 121.38% and 131.60% | Toxicity Data, Percentage Relative to Appropriate DMSO Control, Mean (cells (nuclei count); 5 uM): 129.65% and 137.65% | Toxicity Data, Percentage Relative to Appropriate DMSO Control, Mean (cells (nuclei count); 10 uM): 137.10% and 131.04% | Toxicity Data, Percentage Relative to Appropriate DMSO Control, Mean (cells (nuclei count); 25 uM): 118.22% and 120.31% | Toxicity Data, Percentage Relative to Appropriate DMSO Control, Mean (cells (nuclei count); 50 uM): 93.28% and 100.37% | Toxicity Data, nuclei count relative to DMSO controls (cells (nuclei count); Exp 1 (SMW454), 1 uM): 94.8% and 106.7% and 107.9% | Toxicity Data, nuclei count relative to DMSO controls (cells (nuclei count); Exp 1 (SMW454), 5 uM): 92.6% and 104.0% and 109.1% | Toxicity Data, nuclei count relative to DMSO controls (cells (nuclei count); Exp 1 (SMW454), 10 uM): 94.4% and 107.2% and 106.3% | Toxicity Data, nuclei count relative to DMSO controls (cells (nuclei count); Exp 1 (SMW454), 25 uM): 98.3% and 107.4% and 105.6% | Toxicity Data, nuclei count relative to DMSO controls (cells (nuclei count); Exp 1 (SMW454), 50 uM): 95.5% and 101.6% and 97.7% | Toxicity Data, Percentage Relative to Appropriate DMSO Control (cells (nuclei count); Exp 1 (SMW506), 10 uM): 114% and 126% and 122% | Toxicity Data, Percentage Relative to Appropriate DMSO Control (cells (nuclei count); Exp 1 (SMW506), 25 uM): 111% and 119% and 121% | Toxicity Data, nuclei count relative to DMSO controls (cells (nuclei count); Exp 2 (SMW466), 1 uM): 77.1% and 105.3% and 105.6% | Toxicity Data, nuclei count relative to DMSO controls (cells (nuclei count); Exp 2 (SMW466), 5 uM): 80.8% and 132.0% and 142.0% | Toxicity Data, nuclei count relative to DMSO controls (cells (nuclei count); Exp 2 (SMW466), 10 uM): 78.2% and 135.1% and 144.2% | Toxicity Data, nuclei count relative to DMSO controls (cells (nuclei count); Exp 2 (SMW466), 25 uM): 68.6% and 126.9% and 132.7% | Toxicity Data, Percentage Relative to Appropriate DMSO Control (cells (nuclei count); Exp 2 (SMW507), 5 uM): 144% and 156% and 158% | Toxicity Data, Percentage Relative to Appropriate DMSO Control (cells (nuclei count); Exp 2 (SMW507), 10 uM): 148% and 160% and 140% | Toxicity Data, nuclei count relative to DMSO controls (cells (nuclei count); Exp 3 (SMW480), 1 uM): 110.1% and 127.5% and 137.1% | Toxicity Data, nuclei count relative to DMSO controls (cells (nuclei count); Exp 3 (SMW480), 5 uM): 113.4% and 154.3% and 157.5% | Toxicity Data, nuclei count relative to DMSO controls (cells (nuclei count); Exp 3 (SMW480), 10 uM): 89.6% and 123.8% and 150.9% | Toxicity Data, nuclei count relative to DMSO controls (cells (nuclei count); Exp 3 (SMW480), 50 uM): 60.8% and 69.5% and 85.1% | Relative cell count to DMSO controls, Average (for correlation analysis) (cells (nuclei count); average value over the 5 tested concentrations (1 to 50 uM)): 119.98
